Measured values published in US12268676B2, “Antiviral applications of picolinic acid and its derivatives” (INDIAN INSTITUTE OF SCIENCE, priority 2021, dated 2025).
Structures can show the parent of a compound that is named as a salt.

What was measured:
[1] = test system: pseudotyped SARS CoV-2 particles; assay: microbe, parasite or virus in culture; format: cell-based; conditions: Severe acute respiratory syndrome coronavirus 2; read-out: inhibition of pseudotyped SARS CoV-2 virus entry
[2] = test system: R18 labelled PR8 WT virus; assay: Influenza virus membrane fusion assay (R18 fluorescence); format: cell-based, Influenza A virus; conditions: 90 min
SARS-CoV-2 = assay: SARS CoV-2 infection studies in the hamster model; format: in vivo, Syrian golden hamsters; conditions: CQ dosed therapeutically

CN(C)C(=O)COC(=O)Cc1ccc(OC(=O)c2ccc(NC(=N)N)cc2)cc1 [CM, Camostat mesylate, reference compound]
inhibition at 500 µM [1]: 60%

Cl.N [NH4Cl, ammonium chloride]
virus-entry associated increase in fluorescence intensity ([2]; 10 μM NH4Cl): able to inhibit

CCN(CC)CCCC(C)Nc1ccnc2cc(Cl)ccc12 (centres unmarked) [CQ, Chloroquine, reference compound]
virus-entry associated increase in fluorescence intensity ([2]; 10 μM CQ): able to inhibit
inhibition at 10 µM [1]: 90%
lung viral loads reduced by (SARS-CoV-2): ~1 log
